Experimental data from BindingDB's records for doi:10.1128/AAC.01184-06 (University of California, 2007).

assay: Protection against Bacillus anthracis lethal toxin-mediated cytotoxicity in mouse RAW264.7 cells assessed as change in viability after 24 hrs by WST1 dye reduction assay

SMILES | IC50 [µM]
CC(C)COC[C@H](CN(Cc1ccccc1)c1ccccc1)N1CCCC1 | 4.8
CN(C)CCCn1cc(C2=C(c3c[nH]c4ccccc34)C(=O)NC2=O)c2ccccc21 [2-[1-(3-dimethylaminopropyl)-indol-3-yl]-3-(indol-3-yl)maleimide] | 1.5
CCCCCCCCCCCCC/C=C/[C@@H](O)[C@H](CO)N(C)C [(E)-(2S,3R)-2-Dimethylamino-octadec-4-ene-1,3-diol] | 2.3
